Patent publication US20220064196A1, “EGFR Inhibitors, Compositions and Methods Thereof” (Betta Pharmaceuticals Co., Ltd., priority 2019, published 2022)
Like-named read-outs stand apart in the source and are kept apart here.

How the values were obtained:
[1] = biological target: EGFR Del19/T790M/C797S (Homo sapiens, UniProt P00533, T790M/C797S, form not given); assay: Kinase assay (mobility shift), EGFR Del19/T790M/C797S; assay type: biochemical
Description: (§1) Test 1 Kinase Assay for EGFR Del19/T790M/C797S and EGFR Wildtype
(§2) Enzyme reaction protocol are as follows:
(§3) 1. Preparing 1* Kinase buffer as followed.
(§4) 2. Preparing Compound Concentration Gradient: Compounds were tested at a concentration of 300 nM, diluted to 100-fold final concentration in 100% DMSO solution in 96-well plates, and compounds were diluted 3 times with Precision, 10 concentrations. Each concentration of the compound was then further diluted to a 5-fold final concentration of the intermediate dilution solution using 1* Kinase buffer.
(§5) 3.5 μL of each of the prepared intermediate dilution compounds was separately added to the compound wells of the 384-well plate, and each concentration was tested for duplicate wells; 5 μL of 5% DMSO was added to the negative control wells and the positive control wells, respectively.
(§6) 4. 2.5-fold final concentration of the kinase solution was prepared using 1*Kinase buffer.
(§7) 5. Add 10 μL of 2.5-fold final concentration of kinase solution to the compound well and positive control well; add 10 μL of 1*Kinase buffer to the negative control well.
(§8) 6. Centrifuge at 1000 rpm for 30 seconds, shake the reaction plate and incubate for 10 minutes at room temperature.
(§9) 7. A mixed solution of 2.5 times the final concentration of ATP and Kinase substrate (5-FAM-EEPLYWSFPAKKK-CONH2) was prepared using 1*Kinase buffer.
(§10) 8. 10 μL of a 2.5-fold final concentration of a mixed solution of ATP and a substrate was added to initiate the reaction.
(§11) 9. Centrifuge the 384-well plate at 1000 rpm for 30 seconds, mix by shaking, and incubate at room temperature for the corresponding time.
(§12) 10. Add 30 μL of the stop solution to stop the kinase reaction, centrifuge at 1000 rpm for 30 seconds, and mix by shaking.
(§13) 11. Read the conversion rate with Caliper EZ Reader.
(§14) Convert conversion values to inhibition values:
(§15) Percent inhibition 32 (max-conversion)/(max-min)*100.
(§16) “max” stands for the mean value of the positive control well ratio; “min” stands for the mean value of the negative control well.
(§17) Fit the data in log(inhibitor) vs. response Variable slope of GraphPad Prism 5 to obtain IC50 values.
(§18) Equation used is: Y=Bottom+(Top-Bottom)/(1+(IC50/X)^HillSlope)

[2] = biological target: Ba/F3-Del19/T790M/C797S (Homo sapiens, UniProt P00533, T790M/C797S, cells depend on it, form not given); assay: Ba/F3-Del19/T790M/C797S cells proliferation assay (CellTiter Glo); assay type: cell-based; settings: cell proliferation, 72 h, read-out: Ba/F3-Del19/T790M/C797S IC50
Sequence of Ba/F3-Del19/T790M/C797S (P00533 with tags, fused parts or gaps DEL746-750/T790M/C797S, form open): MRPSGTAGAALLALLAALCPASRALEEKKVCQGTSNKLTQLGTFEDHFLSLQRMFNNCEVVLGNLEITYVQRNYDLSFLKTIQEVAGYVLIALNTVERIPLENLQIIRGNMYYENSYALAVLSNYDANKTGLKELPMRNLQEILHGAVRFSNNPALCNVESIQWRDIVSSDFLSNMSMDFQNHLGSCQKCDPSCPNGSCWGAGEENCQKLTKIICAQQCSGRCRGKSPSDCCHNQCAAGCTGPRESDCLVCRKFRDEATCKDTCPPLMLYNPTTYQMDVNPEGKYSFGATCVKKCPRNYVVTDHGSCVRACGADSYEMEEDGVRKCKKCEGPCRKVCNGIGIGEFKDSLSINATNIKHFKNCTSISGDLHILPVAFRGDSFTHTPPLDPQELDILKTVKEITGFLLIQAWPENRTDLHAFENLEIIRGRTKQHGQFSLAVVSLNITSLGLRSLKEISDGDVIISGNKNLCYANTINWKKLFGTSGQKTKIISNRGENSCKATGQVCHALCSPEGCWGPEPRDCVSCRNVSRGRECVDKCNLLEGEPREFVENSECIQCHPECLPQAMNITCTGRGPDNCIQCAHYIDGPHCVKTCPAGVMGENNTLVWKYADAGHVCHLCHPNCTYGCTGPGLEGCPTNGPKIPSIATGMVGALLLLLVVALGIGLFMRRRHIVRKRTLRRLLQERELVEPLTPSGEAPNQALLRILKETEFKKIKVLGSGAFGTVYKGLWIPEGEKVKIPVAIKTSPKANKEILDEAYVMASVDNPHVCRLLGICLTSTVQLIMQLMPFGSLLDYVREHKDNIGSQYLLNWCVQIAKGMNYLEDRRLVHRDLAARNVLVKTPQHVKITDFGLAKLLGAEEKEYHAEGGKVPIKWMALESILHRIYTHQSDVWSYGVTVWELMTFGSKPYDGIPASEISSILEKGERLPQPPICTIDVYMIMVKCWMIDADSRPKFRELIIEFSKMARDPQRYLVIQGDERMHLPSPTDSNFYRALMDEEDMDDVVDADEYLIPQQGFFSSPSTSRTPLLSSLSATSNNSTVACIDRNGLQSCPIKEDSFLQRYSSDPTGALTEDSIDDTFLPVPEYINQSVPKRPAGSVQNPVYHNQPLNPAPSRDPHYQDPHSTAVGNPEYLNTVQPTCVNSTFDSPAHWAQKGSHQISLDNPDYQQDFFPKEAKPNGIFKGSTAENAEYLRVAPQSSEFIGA
Description: (§19) a) The medium was preheated in a 37°0 C. water bath in advance.
(§20) b) Remove the cryogenic vials from the liquid nitrogen tank, quickly put it into a 37° C. water bath, and completely melt it in 1 min.
(§21) c) Transfer the cell suspension to a 15 mL centrifuge tube containing 8 mL medium, centrifuge 1000 rpm, 5 min.
(§22) d) Discard the supernatant, resuspend the cells in 1 mL medium, and transfer to a 75 cm^2 flask containing 15 mL medium, culture the cells in an incubator at 37° C., 5% CO2.
(§23) a) The medium was preheated in a 37° C. water bath in advance.
(§24) b) Collect cell to a 15 mL centrifuged tube, centrifuge at 1000 rpm for 5 min. Discard the supernatant, count, and make the cell density at 1×10^4 cells/mL, then place it in a 37° C., 5% CO2 incubator.
(§25) a) The test compound (20 mM stock solution) was diluted to 200uM with 100% DMSO as starting concentration then 3-fold serial diluted with “9+0” concentrations. in a 96-well dilution plate (Cat # P-05525, Labcyte);
(§26) b) The above compound solution was diluted 1:20 times with culture medium to prepare a 10 fold working solution;
(§27) a) Take cells in log phase growth, centrifuge at 1000 rpm for 5 min, then resuspend the cells with culture medium, then count cells;
(§28) b) Cells were seeded to 96-well cell culture plate with density at 2000 cells/well;
(§29) a) Compounds prepared at step 2 were added to cell plate with 15 μL per well, the final concentrations were 1000,333, 111.1, 37,12.3, 4.1, 1.4, 0.5, 0.2 and 0 nM, and the final concentration of DMSO was 0.5%. The blank control well was a culture medium (0.5% DMSO);
(§30) b) The cells were incubated for an additional 72 h in the incubator.
(§31) a) Remove the 96-well cell culture plate and add 50 μl of CTG reagent (CellTiter Glo kit, promega, Cat # G7573).
(§32) b) Plate was shaked for 2 min and then let it cool for 10 min at room temperature.
(§33) c) The Luminescence signal value was read using a PerkinElmer reader. Experimental data analysis
(§34) Data were analyzed using GraphPad Prism 6.0 software to obtain a fitted curve of compound activity.
(§35) Fit the Compound IC50 from non-linear regression equation:
(§36) Y=Bottom+(Top-Bottom)/(1+10((LogIC50-X)×Hill Slope));
(§37) X: The log of the concentration of the compound; Y: Luminescence value.
(§38) The cells proliferation assay results are expressed with IC50, shown as Table 2.

[3] = biological target: Ba/F3-L858R/T790M/C797S (Homo sapiens, UniProt P00533, T790M/C797S/L858R, cells depend on it); assay: Ba/F3-L858R/T790M/C797S cells proliferation assay (CellTiter Glo); assay type: cell-based; settings: cell proliferation, 72 h, read-out: Ba/F3-L858R/T790M/C797S IC50
Sequence of Ba/F3-L858R/T790M/C797S (P00533 whole entry T790M/C797S/L858R): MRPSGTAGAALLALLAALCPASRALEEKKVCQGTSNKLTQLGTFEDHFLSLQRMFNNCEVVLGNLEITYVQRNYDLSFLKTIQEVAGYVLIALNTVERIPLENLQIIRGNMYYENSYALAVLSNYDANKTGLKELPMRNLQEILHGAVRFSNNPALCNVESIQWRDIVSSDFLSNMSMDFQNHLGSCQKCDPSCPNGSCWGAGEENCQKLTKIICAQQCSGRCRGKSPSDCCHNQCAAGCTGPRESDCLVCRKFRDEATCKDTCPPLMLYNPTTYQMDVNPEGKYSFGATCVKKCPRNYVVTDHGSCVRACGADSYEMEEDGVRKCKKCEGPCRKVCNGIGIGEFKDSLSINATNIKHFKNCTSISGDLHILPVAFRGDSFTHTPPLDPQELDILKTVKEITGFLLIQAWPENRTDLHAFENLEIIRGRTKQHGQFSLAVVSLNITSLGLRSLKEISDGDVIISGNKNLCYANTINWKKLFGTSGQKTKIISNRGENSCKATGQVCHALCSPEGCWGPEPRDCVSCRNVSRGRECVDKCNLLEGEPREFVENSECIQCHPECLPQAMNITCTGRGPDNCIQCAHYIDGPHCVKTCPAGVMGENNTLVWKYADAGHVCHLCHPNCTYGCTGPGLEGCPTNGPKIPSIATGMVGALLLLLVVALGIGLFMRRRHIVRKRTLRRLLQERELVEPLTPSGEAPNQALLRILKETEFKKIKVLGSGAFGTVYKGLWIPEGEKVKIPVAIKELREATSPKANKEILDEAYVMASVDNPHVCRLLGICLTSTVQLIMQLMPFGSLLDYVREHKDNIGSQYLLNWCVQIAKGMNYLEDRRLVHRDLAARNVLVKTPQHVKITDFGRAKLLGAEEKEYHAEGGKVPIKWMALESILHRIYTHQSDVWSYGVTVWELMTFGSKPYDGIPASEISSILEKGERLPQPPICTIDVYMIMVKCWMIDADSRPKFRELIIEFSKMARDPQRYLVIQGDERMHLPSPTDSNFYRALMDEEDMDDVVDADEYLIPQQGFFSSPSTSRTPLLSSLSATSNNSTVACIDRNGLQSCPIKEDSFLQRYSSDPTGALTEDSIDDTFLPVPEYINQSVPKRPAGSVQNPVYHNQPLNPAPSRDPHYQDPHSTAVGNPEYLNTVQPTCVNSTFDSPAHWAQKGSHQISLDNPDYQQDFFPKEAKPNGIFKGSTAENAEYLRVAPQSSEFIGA
Description: as §19, §20, §21, §22, §23, §24, §25, §26, §27, §28, §29, §30, §31, §32, §33, §34, §35, §36, §37, §38

[4] = test system: A431 (WT); assay: A431 cells proliferation assay (CellTiter Glo); assay type: cell-based; settings: Homo sapiens, A-431; cell proliferation, 72 h
Description: Test 4 A431 Cells Proliferation Assay
DMEM and 10% FBS and 1% PS.
as §23, §20, §21, §22, §24
a) The test compound (20 mM stock solution) was diluted to 2 mM with 100% DMSO as starting concentration then 3-fold serial diluted with “9+0” concentrations. in a 96-well dilution plate (Cat # P-05525, Labcyte);
b) The above compound solution was diluted 1:40 times with culture medium to prepare a 5 fold working solution;
as §27
b) Cells were seeded to 96-well cell culture plate with density at 5000 cells/well;
a) Compounds prepared at step 2 were added to cell plate with 40 μL per well, the final concentrations were 10000, 3333,1111.1, 370.4, 123.5, 41.2, 13.7, 4.6, 1.5 and 0 nM, and the final concentration of DMSO was 0.5%. The blank control well was a culture medium (0.5% DMSO);
as §30
a) Remove the 96-well cell culture plate and add 60 μl of CTG reagent (CellTiter Glo kit, promega, Cat # G7573).
as §32
c) The Luminescence signal value was read using a PerkinElmer reader.
Experimental Data Analysis
as §34, §35
Y=Bottom+(Top-Bottom)/(1+10((LogIC50-X)×HillSlope));
as §37
The cells proliferation assay results are expressed with IC50, shown as Table 3.

[5] = biological target: EGFR L858R/T790M/C797S (Homo sapiens, UniProt P00533, C797S/L858R/T790M); assay: Kinase assay (mobility shift), EGFR L858R/T790M/C797S; assay type: biochemical
Sequence of EGFR L858R/T790M/C797S (P00533 25-1210 T790M/C797S/L858R): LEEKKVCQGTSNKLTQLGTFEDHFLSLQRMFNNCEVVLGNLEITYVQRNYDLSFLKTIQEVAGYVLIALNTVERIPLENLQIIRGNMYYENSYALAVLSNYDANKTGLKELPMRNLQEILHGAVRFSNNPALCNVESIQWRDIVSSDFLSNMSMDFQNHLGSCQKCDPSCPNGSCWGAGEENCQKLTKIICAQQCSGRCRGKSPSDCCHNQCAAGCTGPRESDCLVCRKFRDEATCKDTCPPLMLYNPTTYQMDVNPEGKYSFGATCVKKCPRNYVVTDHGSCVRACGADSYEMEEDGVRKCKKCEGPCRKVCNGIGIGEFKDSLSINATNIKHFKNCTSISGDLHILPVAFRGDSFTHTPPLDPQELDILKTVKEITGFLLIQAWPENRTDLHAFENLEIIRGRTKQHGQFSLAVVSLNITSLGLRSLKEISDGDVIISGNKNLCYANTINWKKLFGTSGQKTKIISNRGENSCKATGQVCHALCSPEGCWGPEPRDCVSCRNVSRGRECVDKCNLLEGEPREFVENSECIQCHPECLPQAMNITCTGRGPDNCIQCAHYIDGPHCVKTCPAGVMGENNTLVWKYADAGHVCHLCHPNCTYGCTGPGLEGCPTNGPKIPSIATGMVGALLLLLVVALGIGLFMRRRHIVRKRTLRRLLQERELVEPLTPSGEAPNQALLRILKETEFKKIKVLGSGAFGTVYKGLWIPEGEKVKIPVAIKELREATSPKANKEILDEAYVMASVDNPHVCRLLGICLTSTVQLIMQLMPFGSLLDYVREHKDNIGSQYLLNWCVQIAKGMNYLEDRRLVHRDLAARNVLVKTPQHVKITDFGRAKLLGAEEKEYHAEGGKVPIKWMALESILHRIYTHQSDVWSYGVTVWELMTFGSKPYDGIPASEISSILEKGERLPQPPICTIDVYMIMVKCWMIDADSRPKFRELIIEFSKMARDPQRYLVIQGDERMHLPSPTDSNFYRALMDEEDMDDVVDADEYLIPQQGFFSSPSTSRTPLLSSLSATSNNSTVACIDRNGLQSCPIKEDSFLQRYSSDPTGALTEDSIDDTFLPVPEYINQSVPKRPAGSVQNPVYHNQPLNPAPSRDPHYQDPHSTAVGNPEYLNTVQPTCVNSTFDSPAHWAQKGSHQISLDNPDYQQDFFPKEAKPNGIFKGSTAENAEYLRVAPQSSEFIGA
Description: [Worded in the source for another variant; this variant is reported under the same test.] as §1, §2, §3, §4, §5, §6, §7, §8, §9, §10, §11, §12, §13, §14, §15, §16, §17, §18

[6] = biological target: EGFR WT (Homo sapiens, UniProt P00533); assay: Kinase assay (mobility shift), EGFR wildtype; assay type: biochemical; settings: top concentration 300 nM
Description: as §1, §2, §3, §4, §5, §6, §7, §8, §9, §10, §11, §12, §13, §14, §15, §16, §17, §18

Sequence of EGFR Del19/T790M/C797S (P00533 with tags, fused parts or gaps DEL746-750/T790M/C797S, form open): as the sequence (P00533 with tags, fused parts or gaps DEL746-750/T790M/C797S, form open) above

Row | SMILES | IC50 [1] | GI50 ([2]; numeric values) | GI50 ([3]; class symbols) | IC50 [4] | IC50 ([5]; numeric values) | GI50 ([2]; class symbols) | IC50 [6] | IC50 ([5]; class symbols) | GI50 ([3]; numeric values)
1 | CN(C)C1CC2(CCN(c3ccc(Nc4ncc(Cl)c(Nc5ccccc5P(C)(C)=O)n4)cc3)CC2)C1 [Example 17, (2-((5-chloro-2-((4-(2-(dimethylamino)-7-azaspiro[3.5]nonan-7-yl)phenyl)amino)pyrimidin-4-yl)amino)phenyl)dimethylphosphine oxide] | 0.7 nM | – | ≤ 10 nM | 35 nM | – | ≤ 10 nM | – | – | –
2 | CN(C)C1CC2(CCN(c3ccc(Nc4ncc(Cl)c(Nc5ccccc5P(C)(C)=O)n4)cc3C(F)(F)F)CC2)C1 [Example 19, (2-((5-chloro-2-((4-(2-(dimethylamino)-7-azaspiro[3.5]nonan-7-yl)-3-(trifluoromethyl)phenyl)amino)pyrimidin-4-yl)amino)phenyl)dimethylphosphine oxide] | – | – | 10 to 50 nM | 349 nM | 4.5 nM | 10 to 50 nM | > 300 nM | – | –
3 | Cc1cc(Nc2nc(Nc3ccccc3P(C)(C)=O)c3nc[nH]c3n2)ccc1N1CCC2(CC1)CC(N)C2 [Example 21, (2-((2-((4-(2-amino-7-azaspiro[3.5]nonan-7-yl)-3-methylphenyl)amino)-9H-purin-6-yl)amino)phenyl)dimethylphosphine oxide] | – | – | > 50 nM | 367 nM | 0.9 nM | > 50 nM | 20 nM | – | –
4 | CP(C)(=O)c1ccccc1Nc1nc(Nc2ccc(N3CCC4(CC3)CC(NCCO)C4)c(Cl)c2)ncc1Cl [Example 32, (2-((5-chloro-2-((3-chloro-4-(2-((2-hydroxyethyl)amino)-7-azaspiro[3.5]nonan-7-yl)phenyl)amino)pyrimidin-4-yl)amino)phenyl)dimethylphosphine oxide] | – | – | > 50 nM | – | 3.2 nM | > 50 nM | 65 nM | – | –
5 | CP(C)(=O)c1ccccc1Nc1nc(Nc2ccc(N3CCC4(CC3)CC(N3CCCC3)C4)c(Cl)c2)ncc1Cl [Example 33, (2-((5-chloro-2-((3-chloro-4-(2-(pyrrolidin-1-yl)-7-azaspiro[3.5]nonan-7-yl)phenyl)amino)pyrimidin-4-yl)amino)phenyl)dimethylphosphine oxide] | 0.4 nM | 9.7 nM | – | 47 nM | – | – | – | – | 11.7 nM

Second part, the compound after the results:

Row | IC50 [1] | GI50 ([2]; numeric values) | GI50 ([3]; class symbols) | IC50 [4] | IC50 ([5]; numeric values) | GI50 ([2]; class symbols) | IC50 [6] | IC50 ([5]; class symbols) | GI50 ([3]; numeric values) | SMILES
6 | 1 nM | 24.4 nM | 10 to 50 nM | 121 nM | – | – | – | – | – | CP(C)(=O)c1ccccc1Nc1nc(Nc2ccc(N3CC4(CCC(NCCO)CC4)C3)c(Cl)c2)ncc1Cl [Example 12, (2-((5-chloro-2-((3-chloro-4-(7-((2-hydroxyethyl)amino)-2-azaspiro[3.5]nonan-2-yl)phenyl)amino)pyrimidin-4-yl)amino)phenyl)dimethylphosphine oxide]
7 | 0.6 nM | – | ≤ 10 nM | 41.6 nM | 1.3 nM | ≤ 10 nM | – | – | – | CN(C)C1CCC2(CC1)CN(c1ccc(Nc3ncc(Cl)c(Nc4ccccc4P(C)(C)=O)n3)cc1)C2 [Example 13, (2-((5-chloro-2-((4-(7-(dimethylamino)-2-azaspiro[3.5]nonan-2-yl)phenyl)amino)pyrimidin-4-yl)amino)phenyl)dimethylphosphine oxide]
8 | – | – | > 50 nM | – | – | > 50 nM | > 300 nM | > 10 nM | – | Cc1cc(Nc2ncc(C#N)c(Nc3ccccc3P(C)(C)=O)n2)ccc1N1CCC2(CC1)CC(N)C2 [Example 28, 2-((4-(2-amino-7-azaspiro[3.5]nonan-7-yl)-3-methylphenyl)amino)-4-((2-(dimethylphosphoryl)phenyl)amino)pyrimidine-5-carbonitrile]
9 | – | 16.9 nM | – | 95.5 nM | 1.6 nM | – | 35 nM | – | 32.9 nM | CP(C)(=O)c1ccccc1Nc1nc(Nc2ccc(N3CCC4(CC3)CC(N)C4)c(F)c2)ncc1Cl [Example 29, (2-((2-((4-(2-amino-7-azaspiro[3.5]nonan-7-yl)-3-fluorophenyl)amino)-5-chloropyrimidin-4-yl)amino)phenyl)dimethylphosphine oxide]
10 | – | – | 10 to 50 nM | – | 1.6 nM | 10 to 50 nM | 33 nM | – | – | CP(C)(=O)c1ccccc1Nc1nc(Nc2ccc(N3CCC4(CC3)CC(NC3CCCC3)C4)c(Cl)c2)ncc1Cl [Example 31, (2-((5-chloro-2-((3-chloro-4-(2-(cyclopentylamino)-7-azaspiro[3.5]nonan-7-yl)phenyl)amino)pyrimidin-4-yl)amino)phenyl)dimethylphosphine oxide]
11 | 0.53 nM | 14.7 nM | – | 53 nM | – | – | – | – | 21.7 nM | CN(C)[C@@H]1CCN(C2CC3(CCN(c4ccc(Nc5ncc(Cl)c(Nc6ccccc6P(C)(C)=O)n5)cc4Cl)CC3)C2)C1 [Example 34, (R)-(2-((5-chloro-2-((3-chloro-4-(2-(3-(dimethylamino)pyrrolidin-1-yl)-7-azaspiro[3.5]nonan-7-yl)phenyl)amino)pyrimidin-4-yl)amino)phenyl)dimethylphosphine oxide]
